Results on 16 compounds are retold here after ChEMBL document CHEMBL5523672, “Thiazol-4(5H)-one analogs as potent tyrosinase inhibitors: Synthesis, tyrosinase inhibition, antimelanogenic effect, antioxidant activity, and in silico docking simulation” (Bioorg Med Chem, 2024).

Structures are written as SMILES. Calls of active or inactive are those of the source. No cut-off for these calls is given here. Where only a bound is given, the exact number is not on record here.

In data set [1] the target is T1, Mushroom tyrosinase (Agaricus bisporus, UniProt O42713+Q00024+C7FF04+C7FF05). In words: Inhibition of mushroom tyrosinase using L-DOPA as substrate incubated for 30 mins by microplate reader assay. Format: protein assay.
Data set [2] in a line: Antioxidant activity assessed as DPPH radical scavenging activity at 500 uM incubated for 30 mins under dark condition by microplate reader assay. It is filed as functional.
For data set [3], the target named is T1, Mushroom tyrosinase. In words: Inhibition of mushroom tyrosinase using L-tyrosine as substrate incubated for 30 mins by microplate reader assay. It is filed as protein assay.
Data set [4] is described as follows: Antioxidant activity assessed as ABTS radical scavenging activity at 100 uM measured at 1 min interval for 10 mins by microplate reader analysis. Format: functional.
Data set [5] in a line: Antioxidant activity assessed as ROS scavenging activity at 40 uM incubated for 30 mins under dark condition in presence of SIN-1 by microplate reader assay. Format: functional.
The target of data set [6] is T2, Mushroom tyrosinase (Agaricus bisporus) (UniProt O42713+Q00024+C7FF04+C7FF05). In words: Potency index, ratio of kojic acid IC50 to test compound IC50 for inhibition of mushroom tyrosinase using L-Dopa as substrate. It is filed as protein assay.
Data set [7] has as its target T3, Tyrosinase (Mus musculus) (UniProt P11344).
T3 sequence (whole entry): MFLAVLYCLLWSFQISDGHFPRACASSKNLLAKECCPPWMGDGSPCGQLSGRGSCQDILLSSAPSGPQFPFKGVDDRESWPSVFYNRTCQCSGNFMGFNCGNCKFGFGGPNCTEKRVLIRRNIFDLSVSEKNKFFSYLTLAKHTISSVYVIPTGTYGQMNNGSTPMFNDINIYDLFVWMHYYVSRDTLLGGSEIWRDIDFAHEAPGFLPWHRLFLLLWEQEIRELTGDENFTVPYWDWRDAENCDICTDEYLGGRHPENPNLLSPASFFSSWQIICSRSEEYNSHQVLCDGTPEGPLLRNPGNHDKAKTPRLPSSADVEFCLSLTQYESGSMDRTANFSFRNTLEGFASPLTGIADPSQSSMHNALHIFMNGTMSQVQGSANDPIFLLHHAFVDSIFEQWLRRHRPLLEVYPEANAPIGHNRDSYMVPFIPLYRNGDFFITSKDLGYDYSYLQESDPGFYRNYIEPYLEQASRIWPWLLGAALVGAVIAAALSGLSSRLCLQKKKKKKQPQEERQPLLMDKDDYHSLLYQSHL
Description: Inhibition of tyrosinase activity in IBMX/[…] stimulated mouse B16-F10 cells preincubated for 1 hr followed by IBMX/[…] addition and measured after 72 hrs by microplate reader assay. Format: cell-based. The following applies: dose 5-20 µM, time 73.0 hrs.

The subject of data set [8] is B16-F10. Description: Cytotoxicity against mouse B16-F10 cells upto 20 uM incubated for 72 hrs by EZ-Cytox method. The settings on record: b16-f10, 72 h. It is filed as toxicity, cell-based.
Data set [9] has as its target T1, Mushroom tyrosinase. Description: Inhibition of mushroom tyrosinase using varying levels of L-DOPA as substrate by Dixon plot analysis. Format: protein assay.
Data set [10] deals with B16-F10. In words: Antimelanogenic activity against IBMX/[…] stimulated mouse B16-F10 cells assessed as reduction in intracellular melanin production preincubated for 1 hr followed by IBMX/[…] addition and measured after 72 hrs by microplate reader assay. It is filed as functional, cell-based. The settings on record: dose 5-20 µM, time 73.0 hrs.
Data set [11] addresses T2, Mushroom tyrosinase (Agaricus bisporus). In words: Mixed type inhibition of mushroom tyrosinase at 3 to 12 uM using varying levels of L-DOPA as substrate by Lineweaver-Burk plot analysis. It is filed as protein assay. The following applies: dose 3-12 µM.
Data set [12] shares this target. In words: Potency index, ratio of kojic acid IC50 to test compound IC50 for inhibition of mushroom tyrosinase using L-Tyrosine as substrate. It is filed as protein assay.
For data set [13] the target is unchanged. Description: Competitive inhibition of mushroom tyrosinase assessed as increase in Km with constant Vmax at 25 to 100 uM using varying levels of L-DOPA as substrate by Lineweaver-Burk plot analysis. The settings on record: dose 25-100 µM. It is filed as protein assay.

The term IC50 denotes the concentration that inhibits the measured activity by half. Broadly, the Ki is the dissociation constant of the complex between target and ligand, obtained from inhibition or displacement.

Consider `COc1ccc(CNC2=NC(=O)/C(=C/c3ccc(O)cc3)S2)cc1`, for which the values for the IC50 in data set [1] and in data set [3] were 29.2 µM and above 200 µM, respectively. Besides, the outcome in data set [2] was inactive.
Regarding `COc1ccc(CNC2=NC(=O)/C(=C/c3cc(OC)c(O)c(OC)c3)S2)cc1`, in data set [4], the Activity is 41%. Moreover, the result in data set [5] was inactive. The IC50 in [1] and in data set [3] was above 200 µM in each case.
For `COc1ccc(CNC2=NC(=O)/C(=C/c3ccc(F)c(F)c3)S2)cc1`, the outcome in data set [4], in data set [5] and in [2] was inactive. The IC50 in data set [1] is 79.5 µM; in data set [3] it was above 200 µM.
Consider `COc1ccc(CNC2=NC(=O)/C(=C/c3cc(C(C)(C)C)c(O)c(C(C)(C)C)c3)S2)cc1`, for which the figures for the Activity in data set [4] and in [2] were 41% and above 80%, respectively. For the same compound, the outcome in data set [5] was inactive. Besides, the half-maximal inhibitory concentration (IC50) in data set [1] is 100.9 µM; in [3] it was above 200 µM.
For `O=C1O[C@H]([C@@H](O)CO)C(O)=C1O`, the Activity in data set [2] was 96%.
Regarding `COc1ccc(CNC2=NC(=O)/C(=C/c3ccc(F)cc3F)S2)cc1`, the outcome in [4], in [5] and in data set [2] was inactive. For the same compound, the figures for the IC50 in [1] and in data set [3] were 179.2 µM and above 200 µM, respectively.
In the case of `CCOc1cc(/C=C2\SC(NCc3ccc(OC)cc3)=NC2=O)ccc1O`, the Activity in data set [4] was 41%; in [2], above 80%. Further, the result in data set [5] was inactive. In addition, the IC50 in [1] stood at 98.5 µM; in [3], 174.2 µM.
For `COc1ccc(CNC2=NC(=O)/C(=C/c3ccc(O)c(O)c3)S2)cc1`, in that order: 75%, 100%, “Active”, 105.1 µM and above 200 µM.
For `COc1ccc(CNC2=NC(=O)/C(=C/c3ccc(O)c(OC)c3)S2)cc1`, in that order: 41%, 93%, “inactive”, 78.1 µM and 29.4 µM.
For `COc1ccc(CNC2=NC(=O)/C(=C/c3ccc(OC)cc3OC)S2)cc1` the same measures were “inactive”, “inactive”, “Active”, 146.4 µM and above 200 µM.
`COc1ccc(CNC2=NC(=O)/C(=C/c3ccc(O)cc3O)S2)cc1`: the Ratio IC50 in data set [6] is 19; in data set [12], 26. In data set [7], the inhibition result is “Dose-Dependent Effect”. Also, the Activity entry is “Non-Toxic” in [8], 90% in [4], “Dose-Dependent Effect” in data set [10] and above 80% in data set [2]. Further, in data set [9], the Ki amounted to 1.1 µM. The outcome in data set [5] was inactive. The values for the IC50 in [1] and in [3] were 0.4 µM and 2.1 µM, respectively. Further, the inhibition result in data set [11] was “Active”.
With `COc1ccc(CNC2=NC(=O)/C(=C/c3ccc(OC)c(OC)c3)S2)cc1`, the result in data set [4] and in data set [2] was inactive. In addition, the outcome in [5] was Active. For the same compound, the IC50 in data set [1] was 136 µM; in data set [3], above 200 µM.
For `COc1ccc(/C=C2\SC(NCc3ccc(OC)cc3)=NC2=O)cc1`, the outcome in [4] and in data set [2] was inactive. For the same compound, the result in data set [5] was Active. Moreover, the IC50 in data set [1] and in data set [3] was above 200 µM throughout.
Regarding `COc1ccc(CNC2=NC(=O)/C(=C/c3cc(OC)c(OC)c(OC)c3)S2)cc1`, the outcome in [4] and in data set [2] was inactive. The result in data set [5] was Active. For the same compound, the IC50 in [1] and in data set [3] was above 200 µM each time.
`Cc1c(C)c2c(c(C)c1O)CCC(C)(C(=O)O)O2` (stereo unspecified): the Activity in [4] turned out to be 99.9%. Moreover, the result in data set [5] was Active.
Turning to `COc1ccc(CNC2=NC(=O)/C(=C/c3ccc(OC)c(O)c3)S2)cc1`, the inhibition result in data set [7] is “Dose-Dependent Effect”. Further, the Activity entry in data set [8] was “Non-Toxic”; in data set [4], 41%; in [10], “Dose-Dependent Effect”. This compound displayed a Ki in [9] of 65.83 µM. In [5], the result was inactive. Besides, the IC50 in data set [1] worked out at 13 µM; in data set [3], 107.9 µM. Also, the inhibition entry in [13] was “Active”.
